Reference: paper PMC7230911, “Meroterpenoids from the Brown Alga Cystoseira usneoides as Potential Anti-Inflammatory and Lung Anticancer Agents” (Marine Drugs, 2020)

How the values were obtained:
[1] = test system: IL-6; assay: IL-6 production in LPS-stimulated THP-1 macrophages (ELISA); type: cell-based; conditions: Homo sapiens, 1 h pretreatment, then LPS 1 μg/mL 24 h; for inhibition at 8 µg/mL: 8 μg/mL; for inhibition at 4 µg/mL: 4 μg/mL
Protocol: To determine the effects of the AMTs 1–8 on the production of TNF-α, IL-6, and IL-1β, THP-1 macrophaghes were pretreated with the compounds and then stimulated with LPS, as the triggering factor to stimulate the cytokines production. The levels of pro-inflammatory cytokines in the cell supernatants were determined using the enzyme-linked immunosorbent (ELISA) kits.
Figure 2 Meroterpenoids 1–8 inhibit LPS-induced expression of TNF-α, IL-6, and IL-1β in THP-1 macrophages (A, B, and C) respectively. Cells were pretreated for 1 h with the compounds (1, 2, 3, 4, 7, and 8 at 8 μg/mL; 5 and 6 at 4 μg/mL), followed by 24 h treatment with LPS. TNF-α (A), IL-6 (B) and IL-1β (C) contents in the culture medium were determined by ELISA. Dexametasone (DEX) was used as positive control. Data are expressed as means ± SE from three independent experiments. Statistical significance is indicated (+++p < 0.001 and +++< 0.01 vs. Control; respectively * p < 0.05, ** p < 0.01, *** p < 0.001 vs. Control + LPS).
THP-1 cells were plated at a density of 3 × 10^5 cells/mL in 24-well plates and incubated with PMA (0.2 μM) for 72 h in a humidified atmosphere of 5% CO2 at 37 °C. The macrophages were pre-treated for 1 h with AMTs 1–8 (8 μg/mL for compounds 1, 2, 3, 4, 7, and 8, and 4 μg/mL for 5 and 6) and then stimulated with lipopolysaccharide (LPS, 1 μg/mL) for another 24 h. Dexamethasone (Dex) was used as positive reference compound at 1 μM. The viability of cells was greater than 95% throughout the experiment. The levels of TNF-α, IL-6, and IL-1ß in supernatants were measured with enzyme-linked immune-sorbent assay (ELISA) kits (Diaclone GEN-PROBE, Besançon cedex, France) according to the manufacturer’s protocols. The absorbance was determined at 450 nm using a microplate reader. To calculate the concentration of cytokines, a standard curve was constructed using serial dilutions of cytokine standards provided with the kit.

[2] = test system: THP-1 macrophages; assay: Cell viability of THP-1 macrophages (SRB assay); type: cell-based, human; conditions: LPS-stimulated THP-1 macrophages, 0–100 µg/mL, 48 and 72 h, data not shown
Protocol: The cytotoxic effect of AMTs 1–8 on LPS-stimulated THP-1 macrophages was determined at different concentrations and incubation times (0–100 µg/mL, 48 and 72 h) using the SRB assay. […] Therefore, in order to rule out cytotoxic effects, compounds 1, 2, 3, 4, 7, and 8 were tested on THP-1 cells at maximum concentration of 8 µg/mL while 5 and 6 were tested at maximum concentration of 4 µg/mL. The viability of THP-1 cells was measured by the SRB assay. The cells were seeded in 96-well plates with the growth medium at a density of 1 × 10^4 cells per well, and differentiation into macrophages was induced by 0.2 μM of phorbol myristate acetate (PMA). Three days after differentiation into macrophages, the cells were treated with various concentrations (0, 3.125, 6.25, 12.5, 25, 50, 100 µg/mL) of the AMTs 1–8 in fresh medium and incubated for another 72 h. Then, the cells were fixed with 50 μL of TCA (50%) and processed, as described in the literature.

[3] = test system: COX-2; assay: COX-2 protein expression in LPS-stimulated THP-1 macrophages (western blot); type: cell-based, human; conditions: 1 h pretreatment, then LPS 1 μg/mL 24 h
Protocol: COX-2 is the key enzyme regulating the production of prostaglandins, which are the central mediators of inflammation. On the other hand, iNOS enzyme represents an important molecular target closely involved in inflammatory responses. Thus, the effect of the AMTs 1–8 on LPS-induced COX-2 and iNOS protein expression was investigated by western blot analysis.
Figure 3 Effect of meroterpenoids 1–8 on LPS-induced COX-2 and iNOS protein expression in THP-1 macrophages. Cells were pretreated for 1 h with the compounds (1, 2, 3, 4, 7, and 8 at 8 μg/mL; 5 and 6 at 4 μg/mL) and then stimulated with LPS (1 μg/mL). Cytosolic lysates from 24 h-stimulated cells were separated on 10% SDS-PAGE. COX-2, iNOS, and β-actin were detected by western blot analysis. Data are expressed as means ± SE from three independent experiments. Statistical significance is indicated (+++ p < 0.001 and ++ p < 0.01, vs. Control, respectively; * p < 0.05, and ** p < 0.01 vs. Control + LPS).
Western blotting was used to measure the protein levels of COX-2 and iNOS [65]. THP-1 macrophages were plated at a density of 1 × 10^6 cells/mL in six-well plates, treated for 1 h with compounds 1–8 (8 μg/mL for compounds 1, 2, 3, 4, 7, and 8, and 4 μg/mL for compounds 5 and 6), and then stimulated with 1 μg/mL of LPS in medium at 37 °C. After 24 h, the cells were washed with ice-cold PBS, collected, suspended in the lysis buffer (250 mM NaCl, 50 mM Tris (pH 7.5), 0.5 mM EDTA, 5 mM EGTA, 8 mM MgCl2, 1 mM PMSF, 0.01 mg/mL pepstatin A, 0.01 mg/mL leupeptin, 0.01 mg/mL aprotinin, 1% Triton X-100) and centrifuged at 12,000× g at 4 °C for 3 min to yield cell lysates. Proteins concentration in cell lysates was determined by Bio-Rad Protein Assay, based on the method of Bradford (BioRad, Richmond CA, USA). Cytosolic proteins (50 μg) were separated with 10% SDS-polyacrylamide gel electrophoresis and transferred on PVDF membranes. The membranes were then blocked with 5% (w/v) non-fat dry milk in Tris-buffered saline containing 0.1% Tween-20 (pH 7.4) (TBST) buffer at room temperature for 1 h. The membranes were washed three times (10 min) in TBST buffer and incubated with specific primary antibodies anti-COX-2 (1:3000) or anti-iNOS (1:1000) diluted in 5% (w/v) non-fat dry milk in TBST buffer, at 4 °C overnight. Then, the membranes were incubated with peroxidase-conjugated […] goat anti-rabbit IgG (1: 1000) for 1 h at room temperature. To ascertain that blots were loaded with equal amounts of protein lysates, they were also incubated in the presence of the antibody against β-actin protein (1:10,000). After washing the membrane again with TBST buffer (10 min) three times, the antibody was visualized using an enhanced chemiluminescence light-detecting kit (Super-Signal West Pico Chemiluminescent Substrate, Pierce, IL, USA), according to the manufacturer’s instructions and exposed to an X-ray film (GE Healthcare Ltd., Amersham, UK). The protein band densities were quantified using a Scientific Imaging Systems (Biophotonics ImageJ Analysis Software, National Institute of Mental Health, Bethesda, MD, USA).

Compound | inhibition at 8 µg/mL [1] [%] | concentration up to which cell viability is not affected [2] | effect on expression of COX-2 (in words) ([3]; 8 μg/mL) | decrease of COX-2 levels ([3]; 8 μg/mL) [%] | inhibition at 4 µg/mL [1] [%] | decrease of COX-2 levels ([3]; 4 μg/mL) [%]
COc1c(C)cc(O)cc1C/C=C(\C)CC(=O)/C=C(/C)CCCC(C)(O)C(=O)/C=C/C(C)(C)O (stereo not drawn) [Compound 1, usneoidone Z] | 71.2 | up to 10 µg/mL | no significant effect | – | – | –
COc1c(C)cc(O)cc1C/C=C(\C)CC(=O)/C=C(\C)CCCC(C)(O)C(=O)/C=C/C(C)(C)O (stereo not drawn) [Compound 2, 11-hydroxy-1’-O-methylamentadione] | 80.8 | up to 10 µg/mL | significantly down-regulated | – | – | –
COc1c(C)cc(O)cc1C/C=C(\C)CC(=O)/C=C(\C)CCCC(C)=O [Compound 3, cystomexicone B] | 69.2 | up to 10 µg/mL | – | 53.35 | – | –
COc1c(C)cc(O)cc1C/C=C(\C)CC(=O)/C=C(/C)CCCC(C)=O [Compound 4, cystomexicone A] | 43 | up to 10 µg/mL | significantly down-regulated | – | – | –
COc1c(C)cc(O)cc1C/C=C(\C)CC(=O)/C=C(/C)CCCC(C)C(=O)/C=C/C(C)(C)O (stereo not drawn) [Compound 5, 6-cis-amentadione-1′-methyl ether] | – | up to 6 µg/mL | – | – | 67.8 | 53.52
COc1c(C)cc(O)cc1C/C=C(\C)CC(=O)/C=C(\C)CCCC(C)C(=O)/C=C/C(C)(C)O (stereo not drawn) [Compound 6, amentadione-1′-methyl ether] | – | up to 6 µg/mL | – | – | 50.9 | 64.23
COc1c(C)cc(O)cc1/C=C/C(C)(O)CC(=O)/C=C(/C)CCCC(C)C(=O)/C=C/C(C)(C)O (stereo not drawn) [Compound 7, cystodione A] | 49.6 | up to 10 µg/mL | – | 58.05 | – | –
COc1c(C)cc(O)cc1/C=C/C(C)(O)CC(=O)/C=C(\C)CCCC(C)C(=O)/C=C/C(C)(C)O (stereo not drawn) [Compound 8, cystodione B] | 58.9 | up to 10 µg/mL | no significant effect | – | – | –
